Results: PubChem BioAssay AID248 (DTP/NCI, 2004)
Several values for one entry are separate records, joined by “and”; a condition that tells them apart may be missing. Equal values may be shown once. Toxic doses and inconclusive results are not listed. Rule as the data show it: active = T/C of 150% or more; inactive = T/C below 125%.

Test system: L1210 leukemia ip in BDF1 mice, survival T/C
Assay: NCI In Vivo Anticancer Drug Screen. Data for tumor model L1210 Leukemia (intraperitoneal) in B6D2F1 (BDF1) mice
Details: higher = longer survival
Procedure, shortened: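 Value reflects the ratio of survival in compound-treated mice to survival in vehicle-treated controls, with both groups carrying the same transplanted tumor.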

[1] = endpoint: mean survival time, dose: 200.0 mg/kg/injection, schedule: Q01DX001 (ip), vehicle: saline
[2] = endpoint: mean survival time, dose: 50.0 mg/kg/injection, schedule: Q01DX001 (ip), vehicle: carboxymethylcellulose (CMC)
[3] = endpoint: mean survival time, dose: 100.0 mg/kg/injection, schedule: Q01DX001 (ip), vehicle: carboxymethylcellulose (CMC)
[4] = endpoint: mean survival time, dose: 200.0 mg/kg/injection, schedule: Q01DX001 (ip), vehicle: carboxymethylcellulose (CMC)
[5] = endpoint: mean survival time, dose: 400.0 mg/kg/injection, schedule: Q01DX001 (ip), vehicle: carboxymethylcellulose (CMC)
[6] = endpoint: mean survival time, dose: 50.0 mg/kg/injection, schedule: Q01DX001 (ip), vehicle: saline
[7] = endpoint: mean survival time, dose: 100.0 mg/kg/injection, schedule: Q04DX003 (ip), vehicle: Klucel (hydroxypropylcellulose) (HPC)
[8] = endpoint: mean survival time, dose: 200.0 mg/kg/injection, schedule: Q04DX003 (ip), vehicle: Klucel (hydroxypropylcellulose) (HPC)
[9] = endpoint: mean survival time, dose: 400.0 mg/kg/injection, schedule: Q04DX003 (ip), vehicle: Klucel (hydroxypropylcellulose) (HPC)

Measured: T/C

CC(=O)C=O
inactive: endpoint: mean survival time, dose: 12.5 mg/kg/injection, schedule: Q01DX009 (ip), vehicle: saline 98 % of control | endpoint: mean survival time, dose: 20.5 mg/kg/injection, schedule: Q01DX006 (ip), vehicle: saline 100 % of control | endpoint: mean survival time, dose: 20.5 mg/kg/injection, schedule: Q ##X009 (ip), vehicle: saline 102 % of control | endpoint: mean survival time, dose: 20.5 mg/kg/injection, schedule: Q## X Z (ip), vehicle: saline 101 % of control | endpoint: mean survival time, dose: 25.0 mg/kg/injection, schedule: Q01DX009 (ip), vehicle: saline 88 % of control | endpoint: mean survival time, dose: 29.5 mg/kg/injection, schedule: Q01DX006 (ip), vehicle: saline 105 % of control | endpoint: mean survival time, dose: 29.5 mg/kg/injection, schedule: Q ##X009 (ip), vehicle: saline 98 % of control | endpoint: mean survival time, dose: 29.5 mg/kg/injection, schedule: Q## X Z (ip), vehicle: saline 97 % of control | endpoint: mean survival time, dose: 41.0 mg/kg/injection, schedule: Q03DX002 (ip), vehicle: saline 107 % of control | endpoint: mean survival time, dose: 42.0 mg/kg/injection, schedule: Q01DX006 (ip), vehicle: saline 96 % of control | endpoint: mean survival time, dose: 42.0 mg/kg/injection, schedule: Q ##X009 (ip), vehicle: saline 110 % of control | endpoint: mean survival time, dose: 42.0 mg/kg/injection, schedule: Q## X Z (ip), vehicle: saline 110 % of control | endpoint: mean survival time, dose: 50.0 mg/kg/injection, schedule: Q01DX009 (ip), vehicle: saline 93 % of control | endpoint: mean survival time, dose: 50.0 mg/kg/injection, schedule: Q01DX009 (ip), vehicle: water 110 % of control | endpoint: mean survival time, dose: 60.0 mg/kg/injection, schedule: Q01DX006 (ip), vehicle: saline 106 % of control and 107 % of control | endpoint: mean survival time, dose: 60.0 mg/kg/injection, schedule: Q ##X009 (ip), vehicle: saline 91 % of control | endpoint: mean survival time, dose: 60.0 mg/kg/injection, schedule: Q## X Z (ip), vehicle: saline 91 % of control | endpoint: mean survival time, dose: 71.0 mg/kg/injection, schedule: Q03DX002 (ip), vehicle: saline 118 % of control | endpoint: mean survival time, dose: 75.0 mg/kg/injection, schedule: Q01DX009 (ip), vehicle: water 113 % of control | endpoint: mean survival time, dose: 93.0 mg/kg/injection, schedule: Q01DX001 (ip), vehicle: saline 113 % of control | endpoint: mean survival time, dose: 100.0 mg/kg/injection, schedule: Q01DX009 (ip), vehicle: saline 97 % of control | endpoint: mean survival time, dose: 100.0 mg/kg/injection, schedule: Q01DX009 (ip), vehicle: water 110 % of control | endpoint: mean survival time, dose: 107.0 mg/kg/injection, schedule: Q03DX002 (ip), vehicle: saline 116 % of control | endpoint: mean survival time, dose: 127.0 mg/kg/injection, schedule: Q01DX001 (ip), vehicle: saline 123 % of control | endpoint: mean survival time, dose: 150.0 mg/kg/injection, schedule: Q01DX009 (ip), vehicle: water 103 % of control | endpoint: mean survival time, dose: 160.0 mg/kg/injection, schedule: Q03DX002 (ip), vehicle: saline 111 % of control | [1] 97 % of control | endpoint: mean survival time, dose: 200.0 mg/kg/injection, schedule: Q01DX009 (ip), vehicle: saline 104 % of control | endpoint: mean survival time, dose: 200.0 mg/kg/injection, schedule: Q01DX009 (ip), vehicle: water 91 % of control | endpoint: mean survival time, dose: 400.0 mg/kg/injection, schedule: Q01DX009 (ip), vehicle: saline 111 % of control | endpoint: median survival time, dose: 35.0 mg/kg/injection, schedule: Q01DX005 (ip), vehicle: other 104 % of control | endpoint: median survival time, dose: 35.0 mg/kg/injection, schedule: Q01DX005 (ip), vehicle: saline sonified 105 % of control | endpoint: median survival time, dose: 44.0 mg/kg/injection, schedule: Q01DX005 (ip), vehicle: other 104 % of control | endpoint: median survival time, dose: 44.0 mg/kg/injection, schedule: Q01DX005 (ip), vehicle: saline sonified 105 % of control | endpoint: median survival time, dose: 55.0 mg/kg/injection, schedule: Q01DX005 (ip), vehicle: other 106 % of control | endpoint: median survival time, dose: 55.0 mg/kg/injection, schedule: Q01DX005 (ip), vehicle: saline sonified 111 % of control | endpoint: median survival time, dose: 69.0 mg/kg/injection, schedule: Q01DX005 (ip), vehicle: other 107 % of control | endpoint: median survival time, dose: 69.0 mg/kg/injection, schedule: Q01DX005 (ip), vehicle: saline sonified 111 % of control | endpoint: median survival time, dose: 86.0 mg/kg/injection, schedule: Q01DX005 (ip), vehicle: other 110 % of control | endpoint: median survival time, dose: 86.0 mg/kg/injection, schedule: Q01DX005 (ip), vehicle: saline sonified 111 % of control | endpoint: median survival time, dose: 175.0 mg/kg/injection, schedule: Q01DX001 (ip), vehicle: other 101 % of control | endpoint: median survival time, dose: 175.0 mg/kg/injection, schedule: Q01DX001 (ip), vehicle: saline sonified 100 % of control | endpoint: median survival time, dose: 194.0 mg/kg/injection, schedule: Q01DX001 (ip), vehicle: other 101 % of control | endpoint: median survival time, dose: 194.0 mg/kg/injection, schedule: Q01DX001 (ip), vehicle: saline sonified 100 % of control | endpoint: median survival time, dose: 216.0 mg/kg/injection, schedule: Q01DX001 (ip), vehicle: other 98 % of control | endpoint: median survival time, dose: 216.0 mg/kg/injection, schedule: Q01DX001 (ip), vehicle: saline sonified 100 % of control | endpoint: median survival time, dose: 240.0 mg/kg/injection, schedule: Q01DX001 (ip), vehicle: other 118 % of control | endpoint: median survival time, dose: 240.0 mg/kg/injection, schedule: Q01DX001 (ip), vehicle: saline sonified 116 % of control | endpoint: median survival time, dose: 268.0 mg/kg/injection, schedule: Q01DX001 (ip), vehicle: other 107 % of control | endpoint: median survival time, dose: 268.0 mg/kg/injection, schedule: Q01DX001 (ip), vehicle: saline sonified 105 % of control | endpoint: median survival time, dose: 298.0 mg/kg/injection, schedule: Q01DX001 (ip), vehicle: other 116 % of control | endpoint: median survival time, dose: 298.0 mg/kg/injection, schedule: Q01DX001 (ip), vehicle: saline sonified 116 % of control

Oc1ccc(F)c2cccnc12
inactive: [2] 101 % of control

Cc1ccc(S(=O)(=O)N2CCCC(O)c3ccccc32)cc1 (configuration not stated)
inactive: [3] 108 % of control | [4] 106 % of control | [5] 116 % of control

CCOc1ccccc1N1C(=O)CSC1=S
inactive: endpoint: mean survival time, dose: 200.0 mg/kg/injection, schedule: Q04DX002 (ip), vehicle: other 117 % of control | endpoint: mean survival time, dose: 400.0 mg/kg/injection, schedule: Q04DX002 (ip), vehicle: other 95 % of control

CCCC/C(=N/NC(N)=O)C(OC)OC
inactive: endpoint: mean survival time, dose: 100.0 mg/kg/injection, schedule: Q01DX001 (ip), vehicle: other 92 % of control | endpoint: mean survival time, dose: 200.0 mg/kg/injection, schedule: Q01DX001 (ip), vehicle: other 86 % of control | endpoint: mean survival time, dose: 400.0 mg/kg/injection, schedule: Q01DX001 (ip), vehicle: other 94 % of control

C1CCC(C2CCC(N3CCCCC3)CC2)CC1 (configuration not stated)
inactive: endpoint: mean survival time, dose: 12.5 mg/kg/injection, schedule: Q01DX001 (ip), vehicle: saline 106 % of control | endpoint: mean survival time, dose: 25.0 mg/kg/injection, schedule: Q01DX001 (ip), vehicle: saline 101 % of control | [6] 101 % of control

O=[N+]([O-])c1ccc(O)c(/C=N\NC(=S)Nc2ccc3cn[nH]c3c2)c1
inactive: [2] 97 % of control | [3] 103 % of control | [4] 93 % of control | [5] 97 % of control

O=[N+]([O-])c1ccc(N/N=C(\Oc2ccccc2)c2ccc([N+](=O)[O-])cc2)cc1
inactive: endpoint: mean survival time, dose: 100.0 mg/kg/injection, schedule: Q04DX003 (ip), vehicle: saline with Tween-80 94 % of control | endpoint: mean survival time, dose: 200.0 mg/kg/injection, schedule: Q04DX003 (ip), vehicle: saline with Tween-80 90 % of control

O=C1C(O)CCN1Cc1ccccc1 (configuration not stated)
inactive: [6] 108 % of control | endpoint: mean survival time, dose: 100.0 mg/kg/injection, schedule: Q01DX001 (ip), vehicle: saline 104 % of control | [1] 104 % of control | endpoint: mean survival time, dose: 400.0 mg/kg/injection, schedule: Q01DX001 (ip), vehicle: saline 102 % of control

Cc1cc(C)n(CO)n1
inactive: endpoint: mean survival time, dose: 100.0 mg/kg/injection, schedule: Q01DX009 (ip), vehicle: Klucel (hydroxypropylcellulose) (HPC) 107 % of control | [7] 100 % of control | endpoint: mean survival time, dose: 200.0 mg/kg/injection, schedule: Q01DX009 (ip), vehicle: Klucel (hydroxypropylcellulose) (HPC) 108 % of control | [8] 110 % of control | [9] 112 % of control

NC(=O)NC(NC(=O)NC(NC(N)=O)c1ccco1)c1ccco1 (configuration not stated)
inactive: [7] 102 % of control | [8] 96 % of control | [9] 88 % of control
